Key:
[1] = target: T1, 11β-HSD1 (Mus musculus, UniProt P50172); assay: Cellular assay, 11β-HSD1 activity in differentiated 3T3-L1 cells; type: cell-based; conditions: 4 hour pre-incubation, read-out: [C2] HSD1 cellular 3T3-L1 Score
T1 construct: endogenous in cells; host or cells: 3T3-L1 (ATCC-CL-173), differentiated into adipocytes
Experimental: The effects on 11β-HSD1 activity was measured in differentiated 3T3-L1 cells and rat hepatocytes.
Medium was refreshed twice a week.
One hour later, the medium was extracted on Extrelut^3-columns with 15 ml diethyl ether and the extract was analysed by HPLC as described above.
As for the enzymatic assays, the compounds to be tested were taken from a stock is solution and tested at a final concentration ranging from −10^−5M to 3·10^−9M.

[2] = target: T2, 11β-HSD2 (Homo sapiens, UniProt P80365); assay: Enzymatic assay, 11β-HSD2 dependent dehydrogenase activity; type: biochemical; conditions: recombinant protein, 100 nM cortisol, 45 minutes at 37° C.; read-out: [C1] HSD2-prot Dehydro Score
T2 sequence (P80365 1-405): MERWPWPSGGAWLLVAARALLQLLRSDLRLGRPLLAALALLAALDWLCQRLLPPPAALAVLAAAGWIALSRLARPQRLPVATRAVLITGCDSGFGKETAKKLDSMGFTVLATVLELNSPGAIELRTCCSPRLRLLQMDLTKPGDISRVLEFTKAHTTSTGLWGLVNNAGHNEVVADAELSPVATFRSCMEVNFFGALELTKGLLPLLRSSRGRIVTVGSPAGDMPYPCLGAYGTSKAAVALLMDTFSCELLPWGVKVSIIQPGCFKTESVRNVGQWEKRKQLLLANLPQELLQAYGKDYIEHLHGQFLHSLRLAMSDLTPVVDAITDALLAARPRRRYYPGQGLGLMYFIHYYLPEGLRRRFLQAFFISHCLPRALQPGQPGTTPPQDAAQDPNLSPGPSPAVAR
Experimental: The effects on the 11β-HSD2 dependent dehydrogenase activity was studied in a reaction mixture containing 0.1M sodium phosphate buffer pH 7.5, 300 μM NAD, 100 nM cortisol (of which 2 nM is 3H-radio labelled), 1 μl drug and/or solvent and 2.5 μg recombinant protein in a final volume of 100 μl.
(§1) All incubations were performed for 45 minutes at 37° C. in a water bath. The reaction was stopped by adding 100 μl acetonitrile containing 20 μg corticosterone as internal standard. After centrifugation, the product formation was analysed in the supernatant by HPLC on a Hypersyl BDS-C18 column using 0.05 mM ammonium acetate/methanol (50/50) as solvent. In all of the aforementioned assays, the drugs to be tested were taken from a stock solution and tested at a final concentration ranging from −10^−5M to 3·10^−9M. From the thus obtained dose response curves, the pIC50 value was calculated and scored as follows; Score 1=pIC50 value<5, Score 2=pIC50 value in the range of 5 to 6, Score 3=pIC50 value>6. Some of the thus obtained results are summarized in the table below (in this table NT stands for Not Tested).

[3] = target: 11β-HSD1 (Homo sapiens, UniProt P28845); assay: Enzymatic assay, 11β-HSD1 reductase activity (conversion of cortisone into cortisol); type: biochemical; conditions: recombinant protein, 2 μM cortisone, 45 minutes at 37° C.; read-out: [C1] HSD1-prot Reduct Score
Chain of 11β-HSD1 (Homo sapiens, UniProt P28845) (P28845 whole entry, species assumed): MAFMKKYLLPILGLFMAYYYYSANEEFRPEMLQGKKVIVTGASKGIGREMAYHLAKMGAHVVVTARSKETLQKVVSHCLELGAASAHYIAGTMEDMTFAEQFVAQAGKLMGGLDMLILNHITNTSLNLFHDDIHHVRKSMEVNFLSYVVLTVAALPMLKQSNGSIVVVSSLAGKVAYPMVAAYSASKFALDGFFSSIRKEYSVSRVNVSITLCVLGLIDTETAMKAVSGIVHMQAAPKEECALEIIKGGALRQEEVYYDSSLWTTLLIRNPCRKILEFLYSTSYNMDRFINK
Experimental: The effects of compounds on 11β-HSD1 dependent conversion of cortisone into cortisol (reductase activity) was studied in a reaction mixture containing 30 mM Tris-HCl buffer pH 7.2, 180 μM NADPH, 1 mM EDTA, 2 μM cortisone, 1 μl drug and/or solvent and 11 μg recombinant protein in a final volume of 100 μl.
as §1

[4] = target: T2, 11β-HSD2; assay: Cellular assay, 11β-HSD2 activity in HepG2 cells; type: cell-based; set-up: endogenous in cells; host or cells: HepG2 (ATCC HB-8065); conditions: 4 hour pre-incubation, read-out: [C2] HSD2 cellular HepG2 Score
Experimental: The effects on 11β-HSD2 activity was studied in HepG2 and LCC-PK1-cells HepG2-cells (ATCC HB-8065) were seeded in 12 well plates at a density of 100,000′ cells/ml and grown at 37° C. in a humidified 5% CO2 atmosphere in MEM-Rega-3 medium supplemented with 10% heat inactivated foetal calf serum, 2 mM L-glutamine and sodium bicarbonate). Medium was refreshed twice a week.
Following a 4 hour pre-incubation with test compound, 0.5 μCi ^3H-cortisol or corticosterone, was added to the cultures. One hour later, the medium was extracted on Extrelut^3-columns with 15 ml diethyl ether and the extract was analysed by HPLC as described above.
As for the enzymatic assays, the compounds to be tested were taken from a stock is solution and tested at a final concentration ranging from −10^−5M to 3·10^−9M. From the thus obtained dose response curves, the pIC50 value was calculated and scored as follows; Score 1=pIC50 value<5, Score 2=pIC50 value in the range of 5 to 6, Score 3=pIC50 value>6. Some of the thus obtained results are summarized in the table below (in this table NT stands for Not Tested).

T1 sequence (P50172 whole entry): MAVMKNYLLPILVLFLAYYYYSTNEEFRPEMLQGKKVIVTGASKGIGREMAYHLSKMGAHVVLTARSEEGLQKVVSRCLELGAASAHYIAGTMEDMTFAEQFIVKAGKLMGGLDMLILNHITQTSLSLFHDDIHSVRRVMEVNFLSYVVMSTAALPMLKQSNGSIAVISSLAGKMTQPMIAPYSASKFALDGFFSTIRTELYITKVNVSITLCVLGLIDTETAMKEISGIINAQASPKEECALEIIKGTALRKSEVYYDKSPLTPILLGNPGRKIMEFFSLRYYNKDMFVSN

| IC50 [1] | SMILES | also measured |
| --- | --- | --- |
| > 10000 nM | O=C1C(Cc2cc(C(F)(F)F)cc(C(F)(F)F)c2)CCN1C1C2CC3CC(C2)CC1C3 (centres unmarked) [Compound 9] | – |
| > 10000 nM | O=C1N(C2C3CC4CC(C3)CC2C4)C2CCC1(c1ccccc1)CC2 (centres unmarked) [Compound 34] | – |
| > 10000 nM | COc1cccc(CC2(C)CCCN(C3C4CC5CC(C4)CC3C5)C2=O)c1 (centres unmarked) [Compound 27] | – |
| < 1000 nM | Cc1cccc(CC2CCN([C@@H]3CC[C@]4(O)CC5CC4[C@H]3C5)C2=O)c1F (some centres unmarked) [Compound 39] | IC50 [2]: > 10000 nM |
| < 1000 nM | O=C1C(Cc2ccccc2)CCN1C1C2CC3CC(C2)CC1C3 (centres unmarked) [Compound 33] | – |
| > 10000 nM | O=C1C(Cc2ccc(OC(F)(F)F)cc2)CCN1C1C2CC3CC(C2)CC1C3 (centres unmarked) [Compound 15] | – |
| < 1000 nM | CC1(c2ccccc2)CCN(C2C3CC4CC(C3)CC2C4)C1=O (centres unmarked) [Compound 35] | – |
| < 1000 nM | CC1(Cc2ccccc2)CCN(C2C3CC4CC(C3)CC2C4)C1=O (centres unmarked) [Compound 32] | – |
| < 1000 nM | Cc1cccc(CC2CCCN(C3C4CC5CC(C4)CC3C5)C2=O)c1F (centres unmarked) [Compound 26] | – |
| > 10000 nM | COc1cccc(CC2(Cc3cccc(OC)c3)CCCN(C3C4CC5CC(C4)CC3C5)C2=O)c1 (centres unmarked) [Compound 31] | – |
| > 10000 nM | Cc1cccc(C)c1CC1CCCN(C2C3CC4CC(C3)CC2C4)C1=O (centres unmarked) [Compound 22] | – |
| < 1000 nM | N#Cc1cccc(CC2CCN(C3C4CC5CC(C4)CC3C5)C2=O)c1 (centres unmarked) [Compound 6] | – |
| < 1000 nM | O=C1C(Cc2cccc(Br)c2)CCN1C1C2CC3CC(C2)CC1C3 (centres unmarked) [Compound 5] | – |
| < 1000 nM | O=C1C(Cc2ccc(F)cc2)CCN1C1C2CC3CC(C2)CC1C3 (centres unmarked) [Compound 14] | IC50 [3]: < 1000 nM; IC50 [4]: > 10000 nM |
| < 1000 nM | Cc1cccc(CC2CCN(C3C4CC5CC(C4)CC3C5)C2=O)c1F (centres unmarked) [Compound 1] | melting point: 101 to 102 °C; IC50 [3]: < 1000 nM; IC50 [4]: > 10000 nM |
| < 1000 nM | COc1cccc(CC2(C)CCN(C3C4CC5CC(C4)CC3C5)C2=O)c1 (centres unmarked) [Compound 29] | IC50 [3]: < 1000 nM; IC50 [4]: 1000 to 10000 nM |
| < 1000 nM | COc1cccc(CC2CCN(C3C4CC5CC(C4)CC3C5)C2=O)c1 (centres unmarked) [Compound 3] | IC50 [3]: < 1000 nM; IC50 [4]: > 10000 nM |
| < 1000 nM | CC1(Cc2ccccc2)CCN([C@@H]2CC[C@]3(O)CC4CC3[C@H]2C4)C1=O (some centres unmarked) [Compound 38] | IC50 [2]: > 10000 nM |
| < 1000 nM | Cc1cc(C)cc(CC2CCN(C3C4CC5CC(C4)CC3C5)C2=O)c1 (centres unmarked) [Compound 11] | – |
| < 1000 nM | COc1cc(CC2(C)CCN(C3C4CC5CC(C4)CC3C5)C2=O)cc(OC)c1 (centres unmarked) [Compound 20] | – |

| IC50 [1] | SMILES | also measured |
| --- | --- | --- |
| < 1000 nM | O=C1C(Cc2cccc(OC(F)(F)F)c2)CCN1C1C2CC3CC(C2)CC1C3 (centres unmarked) [Compound 4] | – |
| < 1000 nM | COc1cc(CC2CCN(C3C4CC5CC(C4)CC3C5)C2=O)cc(OC)c1 (centres unmarked) [Compound 8] | IC50 [3]: < 1000 nM; IC50 [4]: > 10000 nM |
| < 1000 nM | Cc1cc(C)cc(CC2(C)CCN(C3C4CC5CC(C4)CC3C5)C2=O)c1 (centres unmarked) [Compound 19] | – |
| < 1000 nM | O=C1N(C2C3CC4CC(C3)CC2C4)C2CCC1(Cc1ccccc1)CC2 (centres unmarked) [Compound 36] | – |
| < 1000 nM | CC1(Cc2ccc(OC(F)(F)F)cc2)CCN(C2C3CC4CC(C3)CC2C4)C1=O (centres unmarked) [Compound 17] | – |
| < 1000 nM | COc1cccc(CC2CCCN(C3C4CC5CC(C4)CC3C5)C2=O)c1 (centres unmarked) [Compound 21] | – |
| < 1000 nM | O=C1C(Cc2ccccc2)CCN1[C@@H]1CC[C@]2(O)CC3CC2[C@H]1C3 (some centres unmarked) [Compound 37] | IC50 [4]: > 10000 nM |
| < 1000 nM | Cc1ccc(CC2CCN(C3C4CC5CC(C4)CC3C5)C2=O)cc1 (centres unmarked) [Compound 16] | IC50 [3]: < 1000 nM; IC50 [4]: > 10000 nM |
| > 10000 nM | Cc1cc(C)cc(CC2CCCN(C3C4CC5CC(C4)CC3C5)C2=O)c1 (centres unmarked) [Compound 24] | – |
| < 1000 nM | CC1(Cc2ccc(F)cc2)CCN(C2C3CC4CC(C3)CC2C4)C1=O (centres unmarked) [Compound 30] | IC50 [3]: < 1000 nM; IC50 [4]: > 10000 nM |
| > 10000 nM | Cc1cccc(C)c1CC1CCN(C2C3CC4CC(C3)CC2C4)C1=O (centres unmarked) [Compound 12] | – |
| < 1000 nM | O=C1C(Cc2cccc(C(F)(F)F)c2F)CCN1C1C2CC3CC(C2)CC1C3 (centres unmarked) [Compound 7] | – |
| > 10000 nM | COc1cc(CC2(C)CCCN(C3C4CC5CC(C4)CC3C5)C2=O)cc(OC)c1 (centres unmarked) [Compound 28] | – |
| < 1000 nM | Cc1cccc(CC2(C)CCN([C@@H]3CC[C@]4(O)CC5CC4[C@H]3C5)C2=O)c1F (some centres unmarked) [Compound 40] | IC50 [2]: > 10000 nM; IC50 [4]: 1000 to 10000 nM |
| > 10000 nM | O=C1C(Cc2ccc(Cl)cc2)CCN1C1C2CC3CC(C2)CC1C3 (centres unmarked) [Compound 13] | IC50 [3]: < 1000 nM; IC50 [4]: > 10000 nM |
| 1000 to 10000 nM | O=C1C(Cc2cc(F)cc(C(F)(F)F)c2)CCN1C1C2CC3CC(C2)CC1C3 (centres unmarked) [Compound 10] | – |
| < 1000 nM | Cc1cccc(CC2(C)CCN(C3C4CC5CC(C4)CC3C5)C2=O)c1F (centres unmarked) [Compound 2] | melting point: 120.5 to 122 °C; IC50 [3]: < 1000 nM; IC50 [4]: > 10000 nM |
| > 10000 nM | O=C1C(Cc2ccc(OC(F)(F)F)cc2)CCCN1C1C2CC3CC(C2)CC1C3 (centres unmarked) [Compound 23] | – |
| > 10000 nM | Cc1cccc(C)c1CC1(C)CCN(C2C3CC4CC(C3)CC2C4)C1=O (centres unmarked) [Compound 18] | – |
| < 1000 nM | COc1cc(CC2CCCN(C3C4CC5CC(C4)CC3C5)C2=O)cc(OC)c1 (centres unmarked) [Compound 25] | – |

Source: US7687644B2, “Adamantyl pyrrolidin-2-one derivatives as 11-beta hydroxysteroid dehydrogenase inhibitors” (Janssen Pharmaceutica NV, priority 2004, dated 2010)
